The record followed here is article PMC10472861, “Potent inhibition of human tyrosinase inhibitor by verproside from the whole plant of Pseudolysimachion rotundum var. subintegrum” (Journal of Enzyme Inhibition and Medicinal Chemistry, 2023).

Structures are written as SMILES.

For assay [1], the target named is T1, Mushroom tyrosinase (mTyr) (Agaricus bisporus, UniProt C7FF04).
T1 construct: purchased Sigma Chemical Co. T3824-50KU
In words: Mushroom tyrosinase inhibition, L-tyrosine substrate (monophenolase). The settings on record: for inhibition at 100 µM: read-out: Mushroom Tyrosinase L-Tyrosine 100 µM inhibition (%). The class given is biochemical.
Target sequence in this assay (C7FF04 1-392): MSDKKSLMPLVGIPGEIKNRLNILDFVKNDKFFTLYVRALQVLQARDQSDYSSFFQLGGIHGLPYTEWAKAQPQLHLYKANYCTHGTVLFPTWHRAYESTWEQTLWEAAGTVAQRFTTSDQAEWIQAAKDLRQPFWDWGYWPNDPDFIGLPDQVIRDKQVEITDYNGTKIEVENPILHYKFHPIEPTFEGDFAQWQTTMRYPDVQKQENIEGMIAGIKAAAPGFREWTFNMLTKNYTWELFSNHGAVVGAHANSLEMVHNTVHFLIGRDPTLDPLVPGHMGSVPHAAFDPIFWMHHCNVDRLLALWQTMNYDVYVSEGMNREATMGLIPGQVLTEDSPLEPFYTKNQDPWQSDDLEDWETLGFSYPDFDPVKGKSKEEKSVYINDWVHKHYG

The target in assay [2] is T1, Mushroom tyrosinase (mTyr). In words: Mushroom tyrosinase inhibition, L-DOPA substrate (diphenolase). The class given is biochemical.
Target sequence in this assay (C7FF04 1-392 limits assumed): as the sequence (C7FF04 1-392) above
For assay [3], the target named is T2, mushroom tyrosinase (Agaricus bisporus, UniProt C7FF04).
T2 construct: purchased Sigma Chemical Co. T3824-50KU
T2 sequence (C7FF04 1-392): as above
In words: Affinity-based ultrafiltration UPLC-QTOF-MS binding experiment. The settings on record: for after tyrosinase (area): UPLC-QTOF-MS peak area in 1000 ppm extract after incubation with mTyr; for Relative metabolite intensity upon treatment with mTyr: extract treated with mTyr, 15 min preincubation. As for the experimental part: (§1) Affinity-based ultrafiltration was performed as previously described by Zuo et al. and Wang et al.[15]^,[19]^,[23]. First, […] of 0.25 M phosphate buffer (pH 6.8) with 10% glycerol was added to 13 μL of mushroom tyrosinase (144 U in the same phosphate buffer solution) and 100 μL of 1000 mg/mL extract (the test solution was consistently 3.3%). The final concentration of the extract was adjusted to 1000 ppm. The mixture was incubated for 15 or 50 min at 37 °C on a plate shaker. Then, the sample was centrifuged at 13,000 rpm for 20 min, and the supernatant was collected for analysis. The supernatant solution was filtered through a membrane (PTFE 0.2 μm, hydrophobic, Advantec, Japan), and 2 μL of each solution was injected for UPLC-PDA-QTOF-MS analysis.
(§2) The compounds from the P. rotundum var. subintegrum extract were analysed by UPLC-PDA-ESI-QTOF-MS. […] MS was performed in negative ion mode ([M − H]^−). N2 was used as the desolvation gas, the desolvation temperature was set to 350 °C at a flow rate of 400 L/h with a source temperature of 100 °C. The capillary and cone voltages were set to 2300 and 50 V, respectively. The data for each sample were collected with a scan time of 0.25 s and a 0.01 s interscan delay. Exact MS, MS/MS, and elemental analysis were confirmed using MassLynx software incorporated into the Waters instrument.

In assay [4] the test system is mushroom tyrosinase. Described as above. The settings on record: UPLC-QTOF-MS peak area in 1000 ppm extract, not exposed to enzyme. As for the experimental part: as §1, §2
Where [5] appears, read: mTyr, L-tyrosine substrate (monophenolase), read-out: Mushroom Tyrosinase L-Tyrosine IC50.
The mark [6] stands for this setting: mTyr, L-DOPA substrate, read-out: Mushroom Tyrosinase L-DOPA IC50.

`O=C(OC1C2C=COC(OC3OC(CO)C(O)C(O)C3O)C2C(O)(CO)C1Cl)c1ccc(O)c(O)c1` (stereo not drawn) [Longifolioside A (2), Longifolioside A]: the IC50 in assay [1] (setting [5]) was determined as 193 ± 10.5 µM. The inhibition at 100 µM in assay [1] was 36%. The IC50 in assay [2] (setting [6]) was over 200 µM. On mushroom tyrosinase [3], the “after tyrosinase (area)” value is on record as 3852 area and the “Relative metabolite intensity upon treatment with mTyr” value is listed as “significantly reduced”. Moreover, in the assay on mushroom tyrosinase [4], the “Control (area)” value was determined as 10677 area.
For the compound `COc1ccc(C(=O)OC2C3C=COC(OC4OC(CO)C(O)C(O)C4O)C3C3(CO)OC23)cc1OC` (stereo not drawn) [6-O-Veratroyl catalpol (9), 6-O-Veratroyl catalpol], the IC50 in assay [1] (setting [5]) and in assay [2] (setting [6]) was over 200 µM each time. Besides, the inhibition at 100 µM in assay [1] worked out at 6.1%. For the same compound, the “after tyrosinase (area)” value on mushroom tyrosinase [3] is on record as 11932 area. Also, the “Control (area)” value in the assay with mushroom tyrosinase [4] is recorded as 15756 area.
Take `O=C(O[C@H]1[C@@H]2C=CO[C@@H](O[C@@H]3O[C@H](CO)[C@@H](O)[C@H](O)[C@H]3O)[C@@H]2[C@@]2(CO)O[C@@H]12)c1ccc(O)cc1` [Catalposide (3), Catalposide]: the IC50 in assay [1] (setting [5]) and in assay [2] (setting [6]) was over 200 µM each time. In addition, the inhibition at 100 µM in assay [1] was found to be 9.9%. Moreover, at mushroom tyrosinase [3], the “after tyrosinase (area)” value was 21250 area. In addition, the “Control (area)” value in the assay with mushroom tyrosinase [4] was 26121 area.
`O=C(OC1C2CC3OCC(O)(C1Cl)C2C(OC1OC(CO)C(O)C(O)C1O)O3)c1ccc(O)c(O)c1` (stereo not drawn) [Piscroside C (6), Piscroside C]: the IC50 in assay [1] (setting [5]) and in assay [2] (setting [6]) was over 200 µM each time. For the same compound, the inhibition at 100 µM in assay [1] came to 6.7%. Further, the “after tyrosinase (area)” value on mushroom tyrosinase [3] is recorded as 22171 area. Besides, the “Control (area)” value in the assay on mushroom tyrosinase [4] was 44999 area.
As to `O=C(/C=C/c1ccc(O)c(O)c1)O[C@@H]1C2C=CO[C@H](O[C@@H]3O[C@H](CO)[C@@H](O)[C@H](O)[C@H]3O)C2[C@]2(CO)O[C@H]12` (stereo partly drawn) [Verminoside (4), Verminoside], the IC50 in assay [1] (setting [5]) and in assay [2] (setting [6]) was over 200 µM in each case. Moreover, the inhibition at 100 µM in assay [1] was found to be 8.9%. Besides, the “after tyrosinase (area)” value at mushroom tyrosinase [3] came to 2886 area. The “Relative metabolite intensity upon treatment with mTyr” value on mushroom tyrosinase [3] is “significantly reduced”. Besides, the “Control (area)” value with mushroom tyrosinase [4] is 16481 area.
For the compound `COc1ccc(/C=C/C(=O)O[C@H]2[C@@H]3C=CO[C@@H](O[C@@H]4O[C@H](CO)[C@@H](O)[C@H](O)[C@H]4O)[C@@H]3[C@@]3(CO)O[C@@H]23)cc1O` [Minecoside (8), Minecoside], the IC50 in assay [1] (setting [5]) was 132 ± 8.3 µM; in assay [2] (setting [6]), over 200 µM. In addition, the inhibition at 100 µM in assay [1] was determined as 41.7%. Further, the “after tyrosinase (area)” value on mushroom tyrosinase [3] is given as 465 area. Also, the “Control (area)” value in the assay on mushroom tyrosinase [4] is 976 area.
The matching figures for `COc1ccc(C(=O)OC2C3C=COC(OC4OC(CO)C(O)C(O)C4O)C3C3(CO)OC23)cc1O` (stereo not drawn) [Isovanillyl catapol (7), Isovanillyl catapol]: over 200 µM, over 200 µM, 10.1%, 8093 area and 12844 area.
Take `COc1cc(C(=O)O[C@H]2[C@@H]3C=CO[C@@H](O[C@@H]4O[C@H](CO)[C@@H](O)[C@H](O)[C@H]4O)[C@@H]3[C@@]3(CO)O[C@@H]23)ccc1O` [Picroside II (5), Picroside II]: in assay [1], the IC50 was over 200 µM and the inhibition at 100 µM is 5.3%. Further, in assay [2], the IC50 is over 200 µM. Besides, the “after tyrosinase (area)” value on mushroom tyrosinase [3] was found to be 12194 area. Besides, in the assay on mushroom tyrosinase [4], the “Control (area)” value was found to be 17798 area.

For orientation: IC50 means the concentration that gives 50% inhibition. For orientation: inhibition means the drop in the measured response relative to a control, in per cent.
